Columns and labels:
MV-4-11 = experiment: Antitumor effect in human-derived blood cancer cell line (MV-4-11) subcutaneous transplantation model (in vivo); set-up: species or system nude mouse (BALB/cA Jcl-nu/nu); settings: oral, 100 mg/kg/day once per day for 14 days; RTV vs control group, Student-t test, p<0.05
Procedure: A human-derived blood cancer cell line MV-4-11 was transplanted subcutaneously into a nude mouse (BALB/cA Jcl-nu/nu, CLEA Japan, Inc.), and at the time when the tumor volume of the nude mouse on which the engrafted tumor reached 100 to 300 mm^3, four mice were assigned to each group by random stratification so that the average of the tumor volumes of each group was uniform (day 0), and the Example compound was orally administered daily at 100 mg/kg/day once per day for 14 days. Example Compound dosing solutions were prepared using 0.5% HPMC.
An electric balance for animals was used in body weight measurement. Rate of change in body weight on day n (BWCn) from body weight on day n (BWn) was calculated according to the following equation.
Rate of change in body weight BWCn (%)=(BWn−BW0)/BW0×100
Tumor volume (TV) was calculated according to the following equation by sandwiching and measuring the major axis and the minor axis with a digital caliper.
Tumor volume (mm^3)=Major axis (mm)×Minor axis (mm)×Minor axis (mm)/2
In order to compare the chronological transition of proliferation of tumor for the administration of each compound, relative tumor volume (RTV) setting the tumor volume at the time of grouping as 1 as the tumor proliferation rate was calculated according to the following formula, and the transition of the average value of RTV of each individual are shown in FIGS. 1 to 4.
RTV=(tumor volume at the day of tumor volume measurement)/(tumor volume at the time of the grouping)

[1] = test system: HCT116 (Human large intestine cancer cell line); experiment: Effect of combination of sulfonamide compound and other antitumor agent (CellTiter-Glo, combination index): HCT116; type: cell-based
Procedure: (§1) Each cell line was seeded at 90 L/well to a 96-well culture plate (Thermo Fisher Scientific, Inc.) according to the above tables. The cell-seeded plate was cultured in an incubator set to 37° C. and 500 CO2. On the day following seeding, varying concentrations of the sulfonamide compound and the other antitumor agent were added in combination to the cells. […] The serial dilutions of each compound, or DW was added at 5μL/well to the plate such that each compound and DW, or the sulfonamide compound and the other antitumor agent were combined. […] The plate after the addition was cultured at 37° C. for 3 days under 5% CO2 conditions.
(§2) Three days later, CellTiter-Glo(R) 2.0 Reagent (Promega Corporation) was added at 100 μL/well, and the amount of luminescence was measured using a plate reader EnSpire(R) Multimode Plate Reader (PerkinElmer Co., Ltd.).
(§3) An average value from 3 wells was calculated as to each drug condition from the obtained data, and cell survival rate normalized against control wells supplemented with the vehicle (DW) was calculated. A Fa (fractional inhibition) value was calculated by subtracting the cell survival rate from 1.

[2] = test system: MV-4-11 (Human blood cancer cell line); experiment: Effect of combination of sulfonamide compound and other antitumor agent (CellTiter-Glo, combination index): MV-4-11
Procedure: as §1, §2, §3

GB-1 cells = experiment: Cell proliferation inhibitory effect on human cancer cell lines: GB-1; type: cell-based; settings: GB-1, Glioblastoma, DMEM + 10% FBS, 3000 cell/well
Procedure: Human derived breast cancer cell line HCC 1806 cells (American Type Culture Collection, ATCC) were daily passaged at a cell density not exceeding 80% in ATCC recommended Roswell Park Memorial Institute medium (RPMI-1640) containing 10% fetal bovine serum (FBS). In order to start the test of cell proliferation inhibitory activity, HCC 1806 cells were suspended in the above medium, after seeing at 180 μL in each well of a 96-well flat bottom plate so that the number of cells per well was 2,000, the cells were cultured at 37° C. for 1 day in an incubator containing 5% carbon dioxide gas.
On the next day, the Example compound was dissolved in DMSO, and 20 μL of a drug additive solution diluted serially with distilled water to 10 times of the final concentration was added to each well of the culture plate of the cells, and the cells were cultured at 37° C. for 72 hours in an incubator containing 5% carbon dioxide gas. After culturing for 72 hours, 20 μL of glutaraldehyde was added to each well and allowed to stand for 30 minutes, then the plate was washed 10 times with water and was dried. 100 μL of a stain solution (0.05% crystal violet in a 20% methanol solution) was added to each well and allowed to stand for 30 minutes, then the plate was washed 10 times with water and was dried. 100 μL of an extract solution (0.1 N NaH2PO4: 100% ethanol=1:1) was added to each well and mixed, and the mixture was measured at a wavelength of 540 nm using a plate reader (MTP-450 manufactured by Corona Electric Co., Ltd.).
The growth inhibition rate was calculated from the following formula, and the concentration (IC50 (μM)) of a compound inhibiting 50% was determined.
According to the method of Test Example 2, the cell proliferation inhibitory effect on various cancer cell lines as described in Table 24 was evaluated. […]

[3] = Example Compound 1 341 nM + Prexasertib 7.14 nM, molar ratio 1:0.02093
[4] = Example Compound 1 512 nM + Prexasertib 10.7 nM, molar ratio 1:0.02093
[5] = Example Compound 1 768 nM + AZD6738 508 nM, molar ratio 1:0.6621
[6] = Example Compound 1 768 nM + Prexasertib 16.1 nM, molar ratio 1:0.02093
[7] = Example Compound 1 1150 nM + AZD6738 761 nM, molar ratio 1:0.6621
[8] = Example Compound 1 121 nM + Cytarabine 116 nM, molar ratio 1:0.9614
[9] = Example Compound 1 121 nM + Guadecitabine 11.9 nM, molar ratio 1:0.09807
[10] = Example Compound 1 182 nM + Cytarabine 175 nM, molar ratio 1:0.9614
[11] = Example Compound 1 182 nM + Decitabine 50.2 nM, molar ratio 1:0.2758
[12] = Example Compound 1 182 nM + Fludarabine nucleoside 4110 nM, molar ratio 1:22.56
[13] = Example Compound 1 182 nM + Guadecitabine 17.8 nM, molar ratio 1:0.09807
[14] = Example Compound 1 273 nM + Decitabine 75.3 nM, molar ratio 1:0.2758
[15] = Example Compound 1 273 nM + Fludarabine nucleoside 6160 nM, molar ratio 1:22.56
[16] = Example Compound 1 273 nM + Guadecitabine 26.8 nM, molar ratio 1:0.09807
[17] = Example Compound 1 409 nM + Cytarabine 393 nM, molar ratio 1:0.9614
[18] = Example Compound 1 409 nM + Decitabine 113 nM, molar ratio 1:0.2758
[19] = Example Compound 1 409 nM + Guadecitabine 40.1 nM, molar ratio 1:0.09807
[20] = Example Compound 1 613 nM + Decitabine 169 nM, molar ratio 1:0.2758
[21] = Example Compound 1 613 nM + Decitabine 589 nM, molar ratio 1:0.2758
[22] = Example Compound 1 613 nM + Guadecitabine 60.1 nM, molar ratio 1:0.09807
[23] = Example Compound 1 920 nM + Decitabine 254 nM, molar ratio 1:0.2758
[24] = Example Compound 1 920 nM + Guadecitabine […], molar ratio 1:0.09807

- IC50 (GB-1 cells): 1.56 µM
SMILES: Cc1ccc(F)c([C@@H](C)[C@H](NS(=O)(=O)c2ccc(Br)cc2C(N)=O)c2n[nH]c(=O)o2)c1C [Example 1, 5-bromo-2-(N-((1 S,2R)-2-(6-fluoro-2,3-dimethylphenyl)-1-(5-oxo-4,5-dihydro-1,3,4-oxadiazol-2-yl)propyl)sulfamoyl)benzamide]
- antitumor effect (relative tumor volume, RTV) (MV-4-11): antitumor effect
- CI value [1, 3]: 0.451
- Fa value [1, 3]: 0.6993
- CI value [1, 4]: 0.243
- Fa value [1, 4]: 0.9038
- CI value [1, 5]: 0.264
- Fa value [1, 5]: 0.8782
- CI value [1, 6]: 0.197
- Fa value [1, 6]: 0.9579
- CI value [1, 7]: 0.218
- Fa value [1, 7]: 0.9579
- CI value [2, 8]: 0.683
- Fa value [2, 8]: 0.1611
- CI value [2, 9]: 0.706
- Fa value [2, 9]: 0.2186
- CI value [2, 10]: 0.603
- Fa value [2, 10]: 0.4508
- CI value [2, 11]: 0.643
- Fa value [2, 11]: 0.3873
- CI value [2, 12]: 0.783
- Fa value [2, 12]: 0.1868
- CI value [2, 13]: 0.741
- Fa value [2, 13]: 0.3225
- CI value [2, 14]: 0.680
- Fa value [2, 14]: 0.5342
- CI value [2, 15]: 0.592
- Fa value [2, 15]: 0.8795
- CI value [2, 16]: 0.705
- Fa value [2, 16]: 0.5192
- CI value [2, 17]: 0.538
- Fa value [2, 17]: 0.9443
- CI value [2, 18]: 0.667
- Fa value [2, 18]: 0.7570
- CI value [2, 19]: 0.658
- Fa value [2, 19]: 0.7788
- CI value [2, 20]: 0.672
- Fa value [2, 20]: 0.9292
- CI value [2, 21]: 0.419
- Fa value [2, 21]: 0.9960
- CI value [2, 22]: 0.671
- Fa value [2, 22]: 0.9347
- CI value [2, 23]: 0.666
- Fa value [2, 23]: 0.9900
- CI value [2, 24]: 0.639
- Fa value [2, 24]: 0.9921
